The text below walks through data of PubChem BioAssay (NCI).

SMILES strings stand for the structures. Several values for one entry are separate records, joined by “and”; a condition that tells them apart may be missing. Equal values may be shown once.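 Interpolation was linear, between the two tested concentrations surrounding the appropriate level; five concentrations were tested over 48 hours in 96-well plates. GI50 is the concentration that inhibits growth by half. The concentration for full growth arrest is given as TGI.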

Some test systems named below: 786-0 renal; BT-549 breast; HOP-92 NSCLC; HS 578T breast; IGROV1 ovarian; MDA-N; RPMI-8226 leukemia; T-47D breast; U251 CNS; ACHN renal.
Assay in all cases: NCI-60 cell line screen, 48 h

As for `COC1(OC)C[C@H](C)[C@@]23O[C@]24c2cc(O)c5c(c2N[C@H]3C#C/C=C\C#C[C@]14O)C(=O)c1ccccc1C5=O`, the TGI with 786-0 renal is 0.0245 µM; with BT-549 breast it was 0.125 µM; with HOP-92 NSCLC, 0.00982 µM; with HS 578T breast it was 0.516 µM and 3.6 µM; with IGROV1 ovarian, 0.16 µM; with MDA-N, 0.139 µM and 0.108 µM. The TGI in the experiment on RPMI-8226 leukemia is 0.0604 µM and 0.0392 µM; with T-47D breast, 0.0774 µM and 0.455 µM; in the experiment on U251 CNS it was 0.0421 µM and 0.0705 µM. Moreover, the GI50 is 0.0847 µM with HS 578T breast; 0.00836 µM in the experiment on MDA-N; 0.0015 µM in the experiment with RPMI-8226 leukemia; 0.0104 µM with T-47D breast; 0.00251 µM in the experiment on U251 CNS.
On to `O=C1c2ccccc2-c2ccc(O)cc21`, for which the TGI in the experiment with 786-0 renal was over 100 µM; with ACHN renal, 33.2 µM; in the experiment with HS 578T breast, over 100 µM; with IGROV1 ovarian, 35.9 µM; with RPMI-8226 leukemia, over 100 µM; with T-47D breast, 44.8 µM. The same compound came in with a TGI in the experiment on U251 CNS of 70.3 µM.
As for `CO[C@@]12C[C@@H](CNC(=O)c3cc(Br)c[nH]3)O[C@@H]1NC(=O)N2`, the TGI with 786-0 renal, in the experiment with ACHN renal, in the experiment with BT-549 breast, with HS 578T breast, with IGROV1 ovarian and with RPMI-8226 leukemia was over 100 µM throughout. The TGI in the experiment with T-47D breast and in the experiment on U251 CNS was over 100 µM in each case.
For `COc1ccc(/C=c2/[nH]c(=O)/c(=C\c3ccc(OCc4ccccc4)cn3)[nH]c2=O)cc1`, the TGI is over 100 µM in the experiment on 786-0 renal; over 100 µM with ACHN renal; over 100 µM with BT-549 breast; 80 µM in the experiment with HOP-92 NSCLC; over 100 µM in the experiment on HS 578T breast; over 100 µM in the experiment on MDA-N. In addition, the TGI in the experiment on T-47D breast and with U251 CNS was over 100 µM each time.
Take `O=C1c2scnc2-c2nccc3c2c1nc1ccccc13`: the TGI is 2.15 µM in the experiment with ACHN renal; 2.94 µM in the experiment on BT-549 breast; 4.85 µM with HOP-92 NSCLC; over 100 µM in the experiment with HS 578T breast; over 100 µM with IGROV1 ovarian; over 100 µM in the experiment with RPMI-8226 leukemia. This compound also displayed a TGI with T-47D breast of 1.7 µM.
Consider `COc1nc(C#CCCCC#N)nc(OC)n1`, for which the TGI in the experiment on 786-0 renal is 41.7 µM; with ACHN renal, 21.8 µM; in the experiment with BT-549 breast, 33.1 µM; with HS 578T breast it was over 100 µM; with IGROV1 ovarian, 41.8 µM; in the experiment with MDA-N it was 56.1 µM. Also, the TGI in the experiment with T-47D breast is over 100 µM; in the experiment on U251 CNS, 26.7 µM.
`CCn1cc(C(=O)O)c(=O)c2cc(F)c(N3CCN(Cn4c(O)c(N=NC(=O)c5ccncc5)c5cc(Cl)ccc54)CC3)cc21`: the TGI with 786-0 renal is over 100 µM; in the experiment on ACHN renal it was over 100 µM; with BT-549 breast it was over 100 µM; in the experiment on HOP-92 NSCLC, over 100 µM; with HS 578T breast it was over 100 µM; in the experiment with IGROV1 ovarian, 61.6 µM. Also, the TGI was over 100 µM with MDA-N, over 100 µM in the experiment with T-47D breast and 94.4 µM in the experiment on U251 CNS.
For `CN1CCC23c4ccccc4NC1C21CCN(C)C3Nc2ccccc21`, the TGI is 296 µM with HOP-92 NSCLC, over 375 µM in the experiment on IGROV1 ovarian, over 182 µM with RPMI-8226 leukemia and over 375 µM in the experiment with U251 CNS.
`CC(=O)C1(c2ccccc2)CCCN(C)CC1` (stereo not given): the TGI in the experiment with BT-549 breast, in the experiment on HOP-92 NSCLC, in the experiment with HS 578T breast, in the experiment with IGROV1 ovarian, in the experiment on RPMI-8226 leukemia and with T-47D breast was over 100 µM each time. The compound also registered a TGI with U251 CNS of over 100 µM.
As to `O=C1CS(=O)(=O)C(c2cccc(Oc3ccccc3)c2)N1c1cccc(Cl)c1Cl` (stereo not given), the TGI with 786-0 renal is 32.7 µM; with ACHN renal, 43.6 µM; in the experiment on HOP-92 NSCLC, 41.6 µM; in the experiment on HS 578T breast, 90 µM; in the experiment on MDA-N, 49.7 µM; with T-47D breast it was over 100 µM. The same compound gave a TGI in the experiment with U251 CNS of 37.4 µM.
As to `O=c1c2c([nH]c3nccn13)CCCC2`, the TGI in the experiment on ACHN renal, with HS 578T breast, with IGROV1 ovarian, in the experiment with RPMI-8226 leukemia, with T-47D breast and with U251 CNS was over 10 µM in each case.
As to `COc1ccc(OC)c2sc(N3C(=O)/C(=C/c4ccccc4S)N=C3c3ccccc3)nc12`, the TGI in the experiment with 786-0 renal, in the experiment with ACHN renal, with BT-549 breast, in the experiment with HOP-92 NSCLC, with HS 578T breast and with IGROV1 ovarian was over 100 µM throughout. The TGI is 49.5 µM in the experiment with MDA-N, 58.4 µM in the experiment on RPMI-8226 leukemia, over 100 µM with T-47D breast and 73.8 µM with U251 CNS.
For `Cc1c(N)nc([C@H](CC(N)=O)NC[C@H](N)C(N)=O)nc1C(=O)N[C@H](C(=O)N[C@H](C)[C@@H](O)[C@H](C)C(=O)N[C@H](C(=O)NCCc1nc(-c2nc(C(=O)NCCC[S+](C)C)cs2)cs1)[C@@H](C)O)C(OC1OC(CO)C(O)C(O)C1OC1OC(CO)C(O)C(OC(N)=O)C1O)c1cnc[nH]1` (stereo not given in full), the GI50 in the experiment on ACHN renal was 0.0135 µM and 0.0134 µM; with BT-549 breast, 6.48 µM and 7.49 µM; in the experiment with IGROV1 ovarian, 6.89 µM and 1.22 µM; in the experiment with MDA-N, 8.86 µM and 23.8 µM; in the experiment on T-47D breast, 5.28 µM and 1.03 µM and 5.77 µM. The TGI in the experiment with ACHN renal was 0.343 µM and 0.34 µM and 1.03 µM; with BT-549 breast, 23.8 µM and 25 µM and > 100 µM; in the experiment with IGROV1 ovarian, 22.9 µM and 29 µM and 33.6 µM; with MDA-N it was 24.4 µM and 25 µM and > 100 µM; in the experiment with T-47D breast, 24.8 µM and 14.8 µM and 45.9 µM.
`O=C(O)C(Cc1ccccc1)N1C(=O)c2ccccc2C1=O` (stereo not given): the TGI with 786-0 renal, in the experiment with ACHN renal, in the experiment with BT-549 breast, with HOP-92 NSCLC, in the experiment with HS 578T breast and with IGROV1 ovarian was over 100 µM in each case. Moreover, the TGI with MDA-N, with RPMI-8226 leukemia, in the experiment on T-47D breast and with U251 CNS was over 100 µM in each case.
